For assay [1], the system named is E. coli. In words: Antibiotic susceptibility testing by the method of the present invention (AuNP-GOx-Ab nanoprobes, absorbance at 545 nm). To be noted: for Interpretation of results of the present method: Patient two urine sample infected with E. coli (10^4 CFU/mL), antibiotic at EUCAST breakpoint concentration of Table 1. Format: cell-based. The method, then: (§1) 250 μL of urine sample was mixed with 250 μL of 2× Mueller-Hinton broth in autoclaved Eppendorf tubes. Respective concentrations of antibiotics as recited in Table 1 were added in each tubes along with one tube without antibiotic which served as a control for monitoring the growth of bacteria. 7-10 μL of the nanoprobes (AuNP-GOx-Ab) prepared in the Example 2 above was added to the mixture and allowed to incubate at 37° C. for 90 minutes to allow growth of bacteria. The solution was then passed through a membrane filter with a pore size of about 450 nm diameter to separate the bacteria bound to the nanoprobes from the unbound ones. The bacteria bound nanoprobes (nanoprobe-bacteria complex) captured on the membrane surface were then recovered by injecting 250 μL of sodium acetate buffer (10 mM, pH 5.1) from the opposite direction.
(§2) 250 μL of the recovered bacteria-nanoprobe complexes were then incubated at 37° C. for 10 minutes with 50 μL glucose solution (final concentration 100 mM) for production of hydrogen peroxide. After 10 minutes, 150 μL of seed solution containing about 16 nM gold nanoparticles having about 5 nm size and 150 μL of 1.25 mM HAuCl4 solution was added to induce growth of the seed particles and left for 20 minutes to allow growth of the seed particle. Finally, the growth of seed nanoparticles and the intensity of colour formed were determined by recording an absorption spectrum for each sample.
(§3) MIC determination protocol was tested on other antibiotics-bacteria combinations as well and percent reduction criterion was determined for each pair from repeated tests.

The subject of assay [2] is P. aeruginosa. In words: CLSI reference method of microdilution. Format: cell-based. The conditions noted are these: for MIC: Pseudomonas aeruginosa, patient two sample infected with P. aeruginosa, read-out: MIC reported by Microdilution. On the technique in general: In broth dilution the organism is exposed to a series of concentrations in liquid medium.
Assay [3] relates to E. coli. Briefly: CLSI reference method of microdilution. The format is cell-based. The conditions noted are these: for MIC: Escherichia coli.
The test system of assay [4] is K. pneumoniae. Briefly: Antibiotic susceptibility testing by the method of the present invention (AuNP-GOx-Ab nanoprobes, absorbance at 545 nm). Format: cell-based. The conditions noted are these: for MIC: Klebsiella pneumoniae, MIC = dilution showing the criterion % reduction compared to no antibiotics (34% levofloxacin, 23% amikacin), read-out: MIC obtained with the diagnostic method assay; for Interpretation of results of the present method: Patient two urine sample infected with K. pneumoniae, antibiotic at EUCAST breakpoint concentration of Table 1. The procedure:
as §1
as §2, with “sample. FIG. 8(a) provides graphic representation of UV-Visible spectra for antibiotic sensitivity test of patient urine samples with different antibiotics, according to an embodiment of the present invention.” for “sample.”
The antibacterial susceptibility test of patient two urine sample containing K. pneumoniae towards the antibiotics ampicillin, gentamicin, levofloxacin and imipenem was performed as mentioned above.
as §3

Assay [5] concerns P. aeruginosa. Briefly: VITEK automated susceptibility test. The format is cell-based. The conditions noted are these: for MIC: Pseudomonas aeruginosa, patient two sample infected with P. aeruginosa, read-out: MIC reported by VITEK. The source says: (§4) The AST market has several products based on the method they employ for testing that include automated systems, discs, MIC strips and media. Most extensively used method to determine antibiotic susceptibility involve culture tests based on the phenotypic growth of the bacteria, which require three days to arrive at the conclusion (Puttaswamy S. et al., 2018). Although culture-based growth methods are the most widely used systems for AST, a few sophisticated high-end labs and hospitals employ automated test machines such as Vitek 2.0 from Biomeriux Technologies, Phoenix from BD etc. These instruments work on the measurement of light attenuation by optical scanner for growth/no growth of bacteria in micro-wells with different antibiotics.

Assay [6] has as its system E. coli. Briefly: VITEK automated susceptibility test. The format is cell-based. The conditions noted are these: for MIC: Escherichia coli, read-out: MIC reported by VITEK.
Excerpt: as §4

In assay [7] the test system is K. pneumoniae. In words: CLSI reference method of microdilution. Format: cell-based. The conditions noted are these: for MIC: Klebsiella pneumoniae; for Interpretation by Microdilution: EUCAST breakpoints.
In assay [8] the test system is E. faecalis. Briefly: Antibiotic susceptibility testing by the method of the present invention (AuNP-GOx-Ab nanoprobes, absorbance at 545 nm). The format is cell-based. To be noted: Patient two sample infected with E. faecalis, antibiotic at EUCAST breakpoint concentration of Table 1. The procedure:
as §1
(§5) 250 μL of the recovered bacteria-nanoprobe complexes were then incubated at 37° C. for 10 minutes with 50 μL glucose solution (final concentration 100 mM) for production of hydrogen peroxide. […] Finally, the growth of seed nanoparticles and the intensity of colour formed were determined by recording an absorption spectrum for each sample. […]

For assay [9], the system named is E. faecalis. Briefly: CLSI reference method of microdilution. To be noted: for MIC: Enterococcus faecalis, read-out: MIC reported by Microdilution.
Assay [10] concerns K. pneumoniae. In words: VITEK automated susceptibility test. The conditions noted are these: for MIC: Klebsiella pneumoniae, patient two urine sample infected with K. pneumoniae, read-out: MIC reported by VITEK. Format: cell-based.
Excerpt: as §4

In assay [11] the test system is multi-drug resistant P. aeruginosa. Briefly: Antibiotic susceptibility testing by the method of the present invention (AuNP-GOx-Ab nanoprobes, absorbance at 545 nm). The format is cell-based. The conditions noted are these: Patient two sample infected with multi-drug resistant P. aeruginosa, antibiotic at EUCAST breakpoint concentration of Table 1. The method, then:
as §1, §5

The conditions of assay [12]: glucose 100 mM, 37° C., 10 minutes. The method, then: Varying concentrations of GOx, namely, 6 mU, 10 mU and 30 mU and glucose (100 mM) were incubated at 37° C. for 10 minutes and the hydrogen peroxide produced was determined using a H2O2 assay kit (MAK165-SIGMA-ALDRICH).
The mark [13] stands for this setting: Patient one urine sample infected with E. coli.
Setting [14] is: patient two urine sample infected with E. coli.
[15] abbreviates: Clinical isolate K. pneumoniae, read-out: MIC obtained with CLSI reference method of microdilution.
Setting [16] is: Patient two sample infected with P. aeruginosa.
[17] abbreviates: Patient two urine sample infected with K. pneumoniae.
The mark [18] stands for this setting: patient two urine sample infected with K. pneumoniae, read-out: MIC reported by Microdilution.

Values after ≈ are worked out from the molar mass of the structure shown. Like-named read-outs stand apart in the source and are kept apart here.

As a reminder, the MIC is the smallest concentration in the dilution series that meets the test's criterion for growth inhibition. Turning to `C[C@H]1COc2c(N3CCN(C)CC3)c(F)cc3c(=O)c(C(=O)O)cn1c23` [Levofloxacin], the “MIC (concentration at which signal intensity shows 34% reduction against the control)” value in the assay with E. coli [1] (E. coli as printed in text, present method, 34% reduction criterion) is 16 µg/mL. In addition, the MIC with P. aeruginosa [2] was ≥ 32 µg/mL; with E. coli [3] (patient two urine sample infected with E. coli, read-out: MIC reported by Microdilution), 64 µg/mL (≈ 177 µM); with K. pneumoniae [4] (Clinical isolate K. pneumoniae), 16 µg/mL; with P. aeruginosa [5] it was ≥ 8 µg/mL; in the assay on E. coli [6] (setting [14]) it was ≥ 8 µg/mL; in the assay on K. pneumoniae [7] (setting [15]) it was 16 µg/mL (≈ 44.3 µM). In addition, in the assay on E. coli [3] (setting [13]), the “MIC reported by Microdilution” value came out at 64 µg/mL (≈ 177 µM). The “MIC reported by VITEK” value against E. coli [6] (setting [13]) is given as “>=8 μg/mL”.

As for `CN[C@H](CC(C)C)C(=O)N[C@H]1C(=O)N[C@@H](CC(N)=O)C(=O)N[C@H]2C(=O)N[C@H]3C(=O)N[C@H](C(=O)N[C@H](C(=O)O)c4cc(O)cc(O)c4-c4cc3ccc4O)[C@H](O)c3ccc(c(Cl)c3)Oc3cc2cc(c3O[C@@H]2O[C@H](CO)[C@@H](O)[C@H](O)[C@H]2O[C@H]2C[C@](C)(N)[C@H](O)[C@H](C)O2)Oc2ccc(cc2Cl)[C@H]1O` [Vancomycin], the “Interpretation of results of the present method” value is listed as “Sensitive” in the assay with E. faecalis [8] and “sensitive” in the assay with E. faecalis [8] (listed as vancomycin). In the assay with E. faecalis [9], the minimal inhibitory concentration (MIC) came out at 1 µg/mL (≈ 0.69 µM). In addition, in the assay on E. faecalis [9] (Patient two sample infected with E. faecalis, EUCAST breakpoints), the “Interpretation by Microdilution” value is given as “Sensitive”.

As to Gentamicin, the results for the “MIC reported by Microdilution” value in the assay on P. aeruginosa [2] (setting [16]) and against K. pneumoniae [7] (setting [17]) were “>=32 μg/mL” and 0.5 µg/mL, respectively. The “Interpretation by Microdilution” value in the assay with P. aeruginosa [2] (Patient two sample infected with P. aeruginosa, EUCAST breakpoints) is reported as “Resistant”; in the assay with K. pneumoniae [7] (setting [17]) it was “Sensitive”. The “Interpretation of results of the present method” value in the assay on K. pneumoniae [4] is on record as “Sensitive”; in the assay with K. pneumoniae [4] (listed as gentamicin), “sensitive”; in assay [11], “Resistant”; in [11] (listed as gentamicin) it was “resistant”. Moreover, the “Interpretation by VITEK” value in the assay with P. aeruginosa [5] (setting [16]) is reported as “Resistant”; in the assay on K. pneumoniae [10] (setting [17]) it was “Sensitive”. Also, the “MIC reported by VITEK” value is listed as “>=16 μg/mL” against P. aeruginosa [5] (setting [16]) and “<=1 μg/mL” against K. pneumoniae [10] (setting [17]).

As to glucose oxidase [GOx], the H2O2 generated was 60.76 ± 7.6 µM in assay [12] (6 mU GOx), 113.46 ± 48.1 µM in assay [12] (10 mU GOx) and 166.25 ± 5.3 µM in assay [12] (30 mU GOx).

In the case of `CC1(C)S[C@@H]2[C@H](NC(=O)[C@H](N)c3ccccc3)C(=O)N2[C@H]1C(=O)O` [Ampicillin], the “Interpretation of results of the present method” value in the assay with E. coli [1] is “Sensitive”; with E. coli [1] (listed as ampicillin), “sensitive”; in the assay on K. pneumoniae [4] it was “Resistant”; with K. pneumoniae [4] (listed as ampicillin) it was “resistant”. Further, the “Interpretation by Microdilution” value with E. coli [3] (Patient two urine sample infected with E. coli, EUCAST breakpoints) is “Sensitive”; in the assay with K. pneumoniae [7] (setting [17]), “Resistant”. In addition, the minimum inhibitory concentration (MIC) with K. pneumoniae [10] is > 16 µg/mL; with K. pneumoniae [7] (setting [18]), 256 µg/mL (≈ 733 µM). Moreover, in the assay on K. pneumoniae [10] (setting [17]), the “Interpretation by VITEK” value is reported as “Resistant”.

`C[C@@H](O)[C@H]1C(=O)N2C(C(=O)O)=C(SCCN=CN)C[C@H]12` [Imipenem]: the MIC with E. coli [1] (Escherichia coli, Clinical isolate E. coli, MIC = dilution showing the criterion % reduction compared to no antibiotics (55% for imipenem), read-out: MIC obtained with the diagnostic method assay) was 0.125 µg/mL; with P. aeruginosa [2], ≥ 32 µg/mL; with E. coli [3] (Clinical isolate E. coli, read-out: MIC obtained with CLSI reference method of microdilution), 0.25 µg/mL (≈ 0.835 µM); in the assay with E. coli [3] (patient one urine sample infected with E. coli, read-out: MIC reported by Microdilution) it was 0.25 µg/mL (≈ 0.835 µM); in the assay on E. faecalis [9], 0.5 µg/mL (≈ 1.67 µM); with P. aeruginosa [5], ≥ 16 µg/mL. In addition, the MIC is ≤ 0.25 µg/mL in the assay on E. coli [6] (patient one urine sample infected with E. coli), ≤ 0.25 µg/mL in the assay on K. pneumoniae [10] and 0.125 µg/mL (≈ 0.418 µM) in the assay with K. pneumoniae [7] (setting [18]).

With `NCC[C@H](O)C(=O)N[C@@H]1C[C@H](N)[C@@H](O[C@H]2O[C@H](CN)[C@@H](O)[C@H](O)[C@H]2O)[C@H](O)[C@H]1O[C@H]1O[C@H](CO)[C@@H](O)[C@H](N)[C@H]1O` [Amikacin], in the assay with K. pneumoniae [4] (Clinical isolate K. pneumoniae), the “Interpretation by diagnostic method” value is given as “Resistant” and the MIC stood at 128 µg/mL. Also, the “Interpretation by CLSI reference method of microdilution” value in the assay with K. pneumoniae [7] (Clinical isolate K. pneumoniae) is “Resistant”. In addition, the MIC in the assay on K. pneumoniae [7] (setting [15]) was 128 µg/mL (≈ 219 µM).

For the compound `O=C1CN(/N=C/c2ccc([N+](=O)[O-])o2)C(=O)N1` [Nitrofurantoin], the MIC in the assay on E. coli [6] (setting [14]) is ≤ 32 µg/mL.

For the origin of these results see patent publication US20210278402A1, “METHOD FOR TESTING OF ANTIBIOTIC SUSCEPTIBILITY IN MICROORGANISMS” (MODULE INNOVATIONS PRIVATE LIMITED, priority 2018, published 2021).
